Reference: US20250339426A1, “GCN2 MODULATOR FOR TREATING CANCER” (HIBERCELL, INC., priority 2022, published 2025)

Experiments:
[1] = system: DLD-1 (human colorectal cancer cells); assay: In vivo tumor growth inhibition, DLD-1 xenograft; design: species or system BALB/c nude mice; conditions: 5-fluorouracil 75 mg/kg once a week intravenous
Protocol: DLD-1 (human colorectal cancer cells): Female 6-8 weeks old BALB/c nude mice were inoculated subcutaneously on the right flank with DLD-1 tumor cells (5×10^6) in 0.1 ml of RPMI1640 medium without serum for tumor development. The treatments were started when the mean tumor size reached approximately 195 mm^3 at Day 7 post inoculation and continued until end of study by twice daily oral gavage dosing of HC-7366 at listed doses (vehicle, 0.3 mg/kg HC-7366, 1 mg/kg HC-7366, 3 mg/kg HC-7366, 10 mg/kg HC-7366, or 30 mg/kg HC-7366, FIG. 10). For the time course study, tumors were harvested at Days 4, 7 and 14. Tumors were then used for IHC and RNAseq experiments (see Example 21).
(§1) [formula] • 2.2.2 Tumor Measurements: The measurement of tumor size was conducted three times weekly with a caliper and recorded. The tumor volume (mm^3) was estimated using the formula: TV=a×b^2/2, where “a” and “b” is long and short diameters of a tumor, respectively. Tumor volume was calculated using the formula [tumor volume (mm^3)=π/6×length×width^2).
(§2) Regression was calculated using the formula=100×ΔT/T initial, if ΔT<0. Animals with 0 mm^3 tumor volume (no measurable tumor) for three consecutive measurements were considered as complete responders and animals with 50% tumor regressions were partial responders.
(§3) The effect of DC101 in combination with HC-7366 in DLD-1 tumor-bearing mice was evaluated using protocols analogous to those described in Example 6. Mice were treated with 3 or 30 mg/kg HC-7366, twice daily by oral gavage. DC101 was administered at 20 mg/kg twice weekly and with twice daily dosing via intraperitoneal injection.
as §3, with “5-fluorouracil” for “DC101”, “75” for “20”, “once a week,” for “twice weekly and with”, “daily” for “daily dosing”, “intravenous” for “intraperitoneal”

[2] = system: 786-O (human renal cell carcinoma cancer cells); assay: In vivo tumor growth inhibition, 786-O xenograft; design: species or system BALB/c nude mice; conditions: PT-2977 single agent, 0.1 mg/kg twice a day oral
Protocol: 786-O (human renal cell carcinoma cancer cells): Female 6-8 weeks old BALB/c nude mice were inoculated subcutaneously on the right flank with 786-O tumor cells (5×10^6) in 0.1 ml of RPMI1640 medium without serum for tumor development. […] For the DC101 combination study, DC101 (murine monoclonal anti-VEGFR2 antibody) was dosed at 15 mg/kg twice a week by intraperitoneal injection.
as §1, §2
Female 6-8 weeks old BALB/c nude mice were inoculated subcutaneously on the right flank with 786-O tumor cells (5×10^6) in 0.1 ml of RPMI1640 medium without serum for tumor development (see Example 6). […]

[3] = system: MFE280 (human endometrial cancer cells); assay: In vivo tumor growth inhibition, MFE280 xenograft; design: species or system Athymic Nude-Foxn1nu mice; conditions: PT2977 1 mg/kg twice daily oral
[4] = system: NCI-H1975 (human non-small cell lung cancer cells); assay: In vivo tumor growth inhibition, NCI-H1975 xenograft; design: species or system Athymic Nude-Foxn1nu mice
Protocol: NCI-H1975 (human non-small cell lung cancer cells): Female 7-8 weeks old Athymic Nude-Foxn1nu mice were inoculated subcutaneously on the right flank with NCI-H1975 tumor cells (2.5×10^6) in 0.1 ml of RPMI1640 medium without serum for tumor development. Single agent HC-7366 was dosed at 3 mg/kg, osimertinib at 2.5 mg/kg and dacomitinib at 15 mg/kg. HC-7366 was combined with either osimertinib or dacomitinib. The vehicle for the groups was 0.5% methyl cellulose. The treatments were started when the mean tumor size reached approximately 205 mm^3 at Day 22 post inoculation and continued until end of study. HC-7366 was given twice daily by oral gavage whereas osimertinib or dacomitinib were administered once a day by oral gavage (FIGS. 131 and 133).
as §1, §2

[5] = system: GCN2 pathway (p-GCN2, ATF4) in HT1080 cells; assay: Western blot analysis of HT1080 cell lysates; format: cell-based, human; conditions: 100 nM Halofuginone
Protocol: The HT1080 cells were harvested and counted and diluted to the desired density. 2 mL of cell suspension was added into each well of 6-well cell culture plate. The plates were transferred into 37° C., 5% CO2 incubator overnight. The cells were treated as described above. The media was aspirated, and cells were washed with ice cold phosphate buffered saline (PBS). Ice cold 1× radioimmunoprecipitation assay (RIPA) lysis buffer supplemented with protease and phosphatase inhibitors was added to the cell pellets, on ice. After 30 min on ice the cell lysates were centrifuged at 4° C., 12,000 rpm for 15 minutes and the supernatant collected. Protein concentration was determined using BCA kit. The cell lysates were mixed with 5× sodium dodecyl sulfate (SDS) loading buffer and denatured at 95° C. for 5 minutes. […] After the electrophoresis was completed, the separated protein was transferred to a nitrocellulose membrane using transblot system for 90 min, 300 mA, then the membrane was blocked with (tris-buffered saline) TBS buffer (5% bovine serum albumin (BSA)) for 1 hr at room temperature. The membrane was exposed to the primary antibodies overnight in cold room in TBS buffer (1% BSA). The membrane was then washed with TBS-Tween for 3×10 min at R/T, incubated with secondary antibodies in TBS buffer (1% BSA) for 1 hr at RT. The membrane was washed with TBS-Tween for 3×10 min at R/T and the imaging was acquired with Li—COR imaging system.

[6] = system: MV4-11 (human AML cancer cells); assay: In vivo tumor growth inhibition, MV4-11 xenograft; design: species or system BALB/c nude mice; conditions: venetoclax monotherapy, 50 mg/kg once daily
Protocol: MV4-11 (human AML cancer cells): Female 6-8 weeks old BALB/c nude mice were inoculated subcutaneously on the right flank with MV4-11 tumor cells (1×10^7) in RPMI 1640 without serum for tumor development. The treatments were started when the mean tumor size reached approximately 150 mm^3 at Day 13 after cell inoculation and continued until end of study by twice daily oral gavage dosing of HC-7366 at listed doses (vehicle, 0.3 mg/kg HC-7366, 1 mg/kg HC-7366, 3 mg/kg HC-7366, 10 mg/kg HC-7366, or 30 mg/kg HC-7366, FIG. 20). For venetoclax combination study, venetoclax was dissolved in 0.5% carboxymethylcellulose (CMC) and co-administered at 50 mg/kg dose once daily (see Example 8).
as §1, §2
MV4-11 tumors were collected at the end of the venetoclax combination study described in Example 6. Tumor growth curves are provided of MV4-11 tumors treated with single agent HC-7366 and venetoclax or combination (FIG. 43).

## O=c1[nH]cc(F)c(=O)[nH]1 [5-fluorouracil, reference compound]
[1]
  TGI %: ~68%

## CS(=O)(=O)c1ccc(Oc2cc(F)cc(C#N)c2)c2c1[C@H](O)[C@H](F)[C@@H]2F [PT-2977, belzutifan, reference compound]
[2]
  TGI %: ~70%
[3]
  tumor growth inhibition: 53%

## COc1cc2ncnc(Nc3ccc(F)c(Cl)c3)c2cc1NC(=O)/C=C/CN1CCCCC1 [dacomitinib]
[4]; dacomitinib alone 15 mg/kg once a day, end of the study, without statistical significance
  TGI %: 36%

## O=C(CC1NCCCC1O)Cn1cnc2cc(Br)c(Cl)cc2c1=O (centres unmarked) [halofuginone, reference compound]
[5]
  GCN2 and ATF4 in cells treated with halofuginone: activation of GCN2 and ATF4

## C=CC(=O)Nc1cc(Nc2nccc(-c3cn(C)c4ccccc34)n2)c(OC)cc1N(C)CCN(C)C [osimertinib]
[4]; 50% tumor regressions, doses as in study
  partial response (animals/group): 1/10
[4]; osimertinib 2.5 mg/kg once a day oral
  TGI: 95%

## CC1(C)CCC(CN2CCN(c3ccc(C(=O)NS(=O)(=O)c4ccc(NCC5CCOCC5)c([N+](=O)[O-])c4)c(Oc4cnc5[nH]ccc5c4)c3)CC2)=C(c2ccc(Cl)cc2)C1 [venetoclax, reference compound]
[6]
  TGI: 62%
